13 compounds from ChEMBL document CHEMBL5543115, “Long-Residence Time Peptide Antagonist for the Vasopressin V2 Receptor to Treat Autosomal Dominant Polycystic Kidney Disease” (J Med Chem, 2024) can be followed below.

In one test the target is Vasopressin V2 receptor (Homo sapiens, UniProt P30518). The test can be described thus: Displacement of conivaptan-red fluorescent probe from SNAP-tagged human vasopressin V2 receptor expressed in HEK293 cells at 10 uM measured every 1 min for 1 hr by HTRF assay relative to control. The format is cell-based.
Sequence of Vasopressin V2 receptor (P30518 whole entry): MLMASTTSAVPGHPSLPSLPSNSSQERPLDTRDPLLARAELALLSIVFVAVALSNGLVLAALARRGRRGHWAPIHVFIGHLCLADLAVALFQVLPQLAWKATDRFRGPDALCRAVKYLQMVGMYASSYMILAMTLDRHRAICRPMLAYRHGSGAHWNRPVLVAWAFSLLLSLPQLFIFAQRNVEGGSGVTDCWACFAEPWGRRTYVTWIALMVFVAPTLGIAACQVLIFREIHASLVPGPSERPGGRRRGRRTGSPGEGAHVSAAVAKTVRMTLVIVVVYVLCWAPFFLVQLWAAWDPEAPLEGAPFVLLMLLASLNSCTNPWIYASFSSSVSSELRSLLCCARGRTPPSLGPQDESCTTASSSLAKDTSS
Conditions: not given
A general note: Time-resolved FRET reads energy transfer from a long-lived donor to a nearby acceptor.
In turn, `CCOc1ccc(C[C@@H](NC(=O)CC)C(=O)N[C@H](Cc2ccc(F)cc2)C(=O)N[C@H](C(=O)N[C@@H](CC(N)=O)C(=O)N[C@@H](CC)C(=O)N2CCC[C@H]2C(=O)N[C@@H](CCCNC(=N)N)C(=O)N[C@@H](CCCNC(=N)N)C(N)=O)C(C)C)cc1` returned an Activity of 16%.

`CCOc1ccc(C[C@@H](NC(=O)CC)C(=O)N(C)[C@@H](Cc2ccccc2)C(=O)N[C@H](C(=O)N[C@@H](CC(N)=O)C(=O)N[C@@H](CC)C(=O)N2CCC[C@H]2C(=O)N[C@@H](CCCNC(=N)N)C(=O)N[C@@H](CCCNC(=N)N)C(N)=O)C(C)C)cc1` yielded an Activity of 4%. As to `CCOc1ccc(C[C@@H](NC(=O)CC)C(=O)N[C@@H](CC2CCCCC2)C(=O)N[C@H](C(=O)N[C@@H](CC(N)=O)C(=O)N[C@@H](CC)C(=O)N2CCC[C@H]2C(=O)N[C@@H](CCCNC(=N)N)C(=O)N[C@@H](CCCNC(=N)N)C(N)=O)C(C)C)cc1`, the Activity came to 12%. As to `CCOc1ccc(C[C@@H](NC(=O)CC)C(=O)N[C@@H](Cc2ccccc2)C(=O)N[C@H](C(=O)N[C@@H](CC(N)=O)C(=O)N[C@@H](CC)C(=O)N2CCC[C@H]2C(=O)N[C@@H](CCCNC(=N)N)C(=O)N[C@@H](CCCNC(=N)N)C(N)=O)C(C)(C)C)cc1`, the Activity stood at 4%.

`CCOc1ccc(C[C@@H](NC(=O)CC)C(=O)N[C@@H](CCc2ccccc2)C(=O)N[C@H](C(=O)N[C@@H](CC(N)=O)C(=O)N[C@@H](CC)C(=O)N2CCC[C@H]2C(=O)N[C@@H](CCCNC(=N)N)C(=O)N[C@@H](CCCNC(=N)N)C(N)=O)C(C)C)cc1` yielded an Activity of 15%. For `CCOc1ccc(C[C@@H](NC(=O)CC)C(=O)N[C@@H](Cc2cccc(Cl)c2)C(=O)N[C@H](C(=O)N[C@@H](CC(N)=O)C(=O)N[C@@H](CC)C(=O)N2CCC[C@H]2C(=O)N[C@@H](CCCNC(=N)N)C(=O)N[C@@H](CCCNC(=N)N)C(N)=O)C(C)C)cc1`, the Activity is 5%. Consider `CCOc1ccc(C[C@@H](NC(=O)CC)C(=O)N[C@@H](Cc2ccccc2)C(=O)N(C)[C@H](C(=O)N[C@@H](CC(N)=O)C(=O)N[C@@H](CC)C(=O)N2CCC[C@H]2C(=O)N[C@@H](CCCNC(=N)N)C(=O)N[C@@H](CCCNC(=N)N)C(N)=O)C(C)C)cc1`, for which the Activity was determined as 5%.

With `CCOc1ccc(C[C@@H](NC(=O)CC)C(=O)N[C@@H](Cc2c[nH]c3ccccc23)C(=O)N[C@H](C(=O)N[C@@H](CC(N)=O)C(=O)N[C@@H](CC)C(=O)N2CCC[C@H]2C(=O)N[C@@H](CCCNC(=N)N)C(=O)N[C@@H](CCCNC(=N)N)C(N)=O)C(C)C)cc1`, the Activity was found to be 21%. In the case of `CCOc1ccc(C[C@@H](NC(=O)CC)C(=O)N[C@@H](Cc2ccccc2)C(=O)N[C@H](C(=O)N[C@@H](CC(N)=O)C(=O)N[C@@H](CC)C(=O)N2CSC[C@H]2C(=O)N[C@@H](CCCNC(=N)N)C(=O)N[C@@H](CCCNC(=N)N)C(N)=O)C(C)C)cc1`, the Activity amounted to 3%.

In turn, `CCOc1ccc(C[C@@H](NC(=O)CC)C(=O)N[C@@H](Cc2ccncc2)C(=O)N[C@H](C(=O)N[C@@H](CC(N)=O)C(=O)N[C@@H](CC)C(=O)N2CCC[C@H]2C(=O)N[C@@H](CCCNC(=N)N)C(=O)N[C@@H](CCCNC(=N)N)C(N)=O)C(C)C)cc1` came in with an Activity of 7%. As for `CCOc1ccc(C[C@@H](NC(=O)CC)C(=O)N[C@@H](Cc2ccccc2)C(=O)NC(C)(C)C(=O)N[C@@H](CC(N)=O)C(=O)N[C@@H](CC)C(=O)N2CCC[C@H]2C(=O)N[C@@H](CCCNC(=N)N)C(=O)N[C@@H](CCCNC(=N)N)C(N)=O)cc1`, the Activity was found to be 24%.

The same test, now with this note: filed as antagonist.
Compound `CCOc1ccc(C[C@@H](NC(=O)CC)C(=O)N[C@@H](Cc2ccccc2F)C(=O)N[C@H](C(=O)N[C@@H](CC(N)=O)C(=O)N[C@@H](CC)C(=O)N2CCC[C@H]2C(=O)N[C@@H](CCCNC(=N)N)C(=O)N[C@@H](CCCNC(=N)N)C(N)=O)C(C)C)cc1` gave an Activity of 43%.

Consider `CCOc1ccc(C[C@@H](NC(=O)CC)C(=O)N[C@@H](Cc2cccc(C)c2)C(=O)N[C@H](C(=O)N[C@@H](CC(N)=O)C(=O)N[C@@H](CC)C(=O)N2CCC[C@H]2C(=O)N[C@@H](CCCNC(=N)N)C(=O)N[C@@H](CCCNC(=N)N)C(N)=O)C(C)C)cc1`, for which the Activity turned out to be 46%.
